pIC50: −log10 of the molar value. Structures can show the parent of a compound that is named as a salt.
Experiments:
[1] = tested on: Rat paw edema; assay: Rat Paw Edema Assay (carrageenan); format: in vivo, Male Sprague-Dawley rats; conditions: po, 1 h before subplantar carrageenan (500 μg per paw); paw volume at 3 h
Protocol: Male Sprague-Dawley rats (150-200 g) were fasted overnight and were given po either vehicle (1% methocel or 5% Tween 80) or a test compound. One hour later, a line was drawn using a permanent marker at the level above the ankle in one hind paw to define the area of the paw to be monitored. The paw volume (VO) was measured using a plethysmometer (Ugo-B asile, Italy) based on the principle of water displacement. The animals were then injected subplantarly with 50 μl of 1% carrageenan solution in saline (FMC Corp, Maine) into the paw using an insulin syringe with a 25-gauge needle (i.e. 500 μg carrageenan per paw). Three hours later, the paw is volume (V3) was measured and the increases in paw volume (V3 -VO) were calculated. The animals were sacrificed by CO2 aphyxiation and the absence or presence of stomach lesions scored. Data were compared with the vehicle-control values and percent inhibition calculated. […] All treatment groups were coded to eliminate observer bias.

[2] = target: T1, cyclooxygenase-2 (Homo sapiens, UniProt P35354); assay: cell-based; conditions: human osteosarcoma 143 cells; PGE2 synthesis; 10 μM arachidonic acid; read-out: COX-2 (IC50)
T1 sequence (P35354 18-604): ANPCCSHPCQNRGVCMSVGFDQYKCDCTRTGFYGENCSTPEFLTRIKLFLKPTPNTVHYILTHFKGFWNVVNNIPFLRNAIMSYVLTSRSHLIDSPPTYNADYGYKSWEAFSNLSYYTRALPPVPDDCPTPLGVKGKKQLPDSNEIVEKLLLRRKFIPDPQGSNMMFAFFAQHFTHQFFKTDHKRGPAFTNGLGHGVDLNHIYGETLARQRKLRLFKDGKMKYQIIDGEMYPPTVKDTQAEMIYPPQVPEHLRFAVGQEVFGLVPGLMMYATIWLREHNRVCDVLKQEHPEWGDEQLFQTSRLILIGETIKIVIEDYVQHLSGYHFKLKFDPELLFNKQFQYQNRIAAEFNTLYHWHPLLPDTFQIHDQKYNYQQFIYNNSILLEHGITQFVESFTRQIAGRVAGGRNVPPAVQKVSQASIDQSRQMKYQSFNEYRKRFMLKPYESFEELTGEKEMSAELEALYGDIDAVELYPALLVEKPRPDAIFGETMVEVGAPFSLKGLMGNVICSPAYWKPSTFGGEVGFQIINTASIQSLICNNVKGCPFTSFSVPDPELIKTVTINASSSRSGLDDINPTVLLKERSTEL
Protocol: Compounds were tested as inhibitors of cyclooxygenase activity in whole cell cyclooxygenase assays. Both of these assays measured prostaglandin E2 synthesis in response to arachidonic acid, using a radioimmunoassay. Cells used for these assays were human osteosarcoma 143 cells (which specifically express cyclooxygenase-2) and human U-937 cells (which specifically express cyclooxygenase-1 ). In these assays, 100% activity is defined as the difference between prostaglandin E2 synthesis in the absence and presence of arachidonate.
For cyclooxygenase assays, osteosarcoma cells are cultured in 1 mL of media in 24-well multidishes (Nunclon) until confluent (1-2×10^5 cells/well). U-937 cells are grown in spinner flasks and resuspended to a final density of 1.5×10^6 cells/mL in 24-well multidishes (Nunclon). Following washing and resuspension of osteosarcoma and U-937 cells in 1 mL of Hanks balanced salts solution (HBSS), 2 μL of a DMSO solution of test compound or DMSO vehicle is added, and samples gently mixed. All assays are performed in triplicate. Samples and then incubated for 5 or 15 minutes at 37° C., prior to the addition of arachidonic acid. Arachidonic acid (peroxide-free, Cayman Chemical) is prepared as a 10mM stock solution in ethanol and further diluted 10-fold in HBSS. An aliquot of 10 μL of this diluted solution is added to the cells to give a final arachidonic acid concentration of 10 μM. Control samples are incubated with ethanol vehicle instead of arachidonic acid. Samples are again gently mixed and incubated for a further 10 min. at 37° C. For osteosarcoma cells, reactions are then stopped by the addition of 100 μL of 1 N HCl with mixing and by the rapid removal of the solution from cell monolayers. For U-937 cells, reactions are stopped by the addition of 100 μL of 1N HCl, with mixing. Samples are then neutralized by the addition of 100 μL of 1N NaOH and PGE2 levels measured by radioimmunoassay.
In the assay, inhibition is determined by measuring the amount of prostaglandin E2 (PGE2) synthesized in the presence of arachidonic acid, cyclooxygenase-1 or cyclooxygenase-2 and a putative inhibitor. The IC50 values represent the concentration of putative inhibitor required to return PGE2 synthesis to 50% of that obtained as compared to the uninhibited control.

[3] = target: cyclooxygenase-1 (Homo sapiens, UniProt P23219); assay: Inhibition of cyclooxygenase activity, whole cell cyclooxygenase assay (COX-1, U-937 cells, PGE2 by radioimmunoassay); format: cell-based; conditions: human U-937 cells; PGE2 synthesis; 10 μM arachidonic acid
Chain of cyclooxygenase-1 (P23219 24-599): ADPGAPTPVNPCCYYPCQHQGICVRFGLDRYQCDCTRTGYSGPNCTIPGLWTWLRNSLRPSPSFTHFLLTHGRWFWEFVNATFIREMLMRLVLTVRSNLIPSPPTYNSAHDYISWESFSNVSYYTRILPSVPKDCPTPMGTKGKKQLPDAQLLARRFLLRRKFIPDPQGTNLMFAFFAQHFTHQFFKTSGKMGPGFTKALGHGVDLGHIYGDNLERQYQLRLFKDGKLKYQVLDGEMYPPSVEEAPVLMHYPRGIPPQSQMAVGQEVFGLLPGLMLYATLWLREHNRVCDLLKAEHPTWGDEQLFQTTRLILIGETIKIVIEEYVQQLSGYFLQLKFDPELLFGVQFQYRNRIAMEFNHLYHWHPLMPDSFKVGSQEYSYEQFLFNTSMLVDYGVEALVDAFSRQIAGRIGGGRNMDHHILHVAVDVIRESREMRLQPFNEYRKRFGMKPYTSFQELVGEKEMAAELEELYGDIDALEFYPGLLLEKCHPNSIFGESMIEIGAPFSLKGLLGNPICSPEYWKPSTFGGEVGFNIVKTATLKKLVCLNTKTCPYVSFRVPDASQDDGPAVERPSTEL

Row | SMILES | pIC50 [2] | pIC50 [3] | Rat paw edema (ED30) [1] [mg/kg]
1 | Cc1c(C(C)C(=O)[O-])c2cc(Br)ccc2n1Cc1ccc(Br)cc1.[Na+] (racemic) | – | – | 0.26
2 | Cc1c(C(C)C(=O)[O-])c2cc(Br)ccc2n1Cc1ccc(Br)cc1.[Na+] (racemic) [sodium salt] | 8.72 | 5.00 | –
3 | Cc1c([C@H](C)C(=O)O)c2cc(Br)ccc2n1Cc1ccc(Br)cc1 [Example 2, sodium salt] | 7.89 | 5.96 | 0.28

Second part, led by results:

Row | pIC50 [2] | pIC50 [3] | SMILES | Rat paw edema (ED30) [1] [mg/kg]
4 | 9.00 | 4.49 | Cc1c([C@@H](C)C(=O)O)c2cc(Br)ccc2n1Cc1ccc(Br)cc1 [Example 3, (R)-(-)-2-(5-Bromo-1-(4-bromobenzyl)-2-methyl-1H-indol-3-yl)propionic acid, sodium salt] | 0.57
5 | 8.00 | 5.00 | COc1ccc2c(c1)c(C(C)C(=O)O)c(C)n2Cc1ccc(Cl)cc1 (stereo not drawn) [MK-555, α-(1-p-chlorobenzyl-2-methyl-5-methoxy-3-indolyl)propionic acid, reference compound] | 3
